Assay results taken from patent US20260035367A1 (Celgene Corporation, priority 2021, published 2026).
Read-outs that look alike come from different tables or passages of the source.

Columns and labels:
[1] = system: IL-2 secretion by human effector memory T cells (TEM); test: Effector memory T cells IL-2 release assay (CD3/CD28 stimulation, HTRF IL-2 detection); type: cell-based; settings: 24 h; for IC50: Homo sapiens, T-cell
Protocol: Test compound-mediated inhibition of NFκB signalling in T cells was assessed by quantification of the IL-2 secretion by human effector memory T cells (TEM) upon treatment and stimulation. Human TEM cells were isolated from buffy coats of healthy donors obtained from the French blood bank.
Finally, 10 doses of test compound, originally prepared in DMSO by serial semi-log step dilution, were also added to cells in triplicate wells. Final DMSO concentration in wells was 0.1% in a total volume of 100 μL complete medium. Plates were incubated for 24 h at 37° C. in 5% CO2 atmosphere. After incubation, cell suspensions were centrifuged at 400×g and culture supernatants were recovered and stored at −80° C. […] IL-2 levels were determined in cell supernatants using an HTRF human IL-2 detection kit (Cisbio, cat #62HIL02PEH).

[2] = target: T1, Recombinant human PKC-delta (His-tagged 345-676) (Homo sapiens, UniProt Q05655); test: PKC-delta inhibition assay (HTRF KinEASE kit); type: biochemical; settings: ratio, PKC-theta vs PKC-delta HTRF; for PKC-theta/PKC-delta selectivity (binned): binned A to G
T1 construct: PKC-delta (His-tagged 345-676); His

[3] = target: T2, Recombinant human PKC-theta (His-tagged 362-706) (Homo sapiens, UniProt Q04759); test: PKC-theta inhibition assay (HTRF KinEASE kit); type: biochemical; settings: ATP 6.5 μM, STK substrate 525 nM
T2 construct: Recombinant human PKC-theta (His-tagged 362-706); His
Protocol: PKC-theta and PKC-delta biochemical activities were measured using the PKC-theta HTRF KinEASEkit kit, according to manufacturer's instructions (Cisbio, catalogue number 61ST1PEJ). Briefly, the kinase buffer component of the kit was supplemented with 10 mM MgCl2, 1 mM DTT and 0.1% Tween 20. […] The streptavidin_XL665 and STK antibody-cryptate detection reagents were mixed according to the manufacturer's instructions. Test compounds were diluted in DMSO in a series of 10 semi-log step doses; 10 nL of each compound dose were dispensed in 384 well plates. […] The reaction was started by addition of the substrate and ATP and incubated at 25° C. for 30 minutes or 20 minutes for the PKC-theta and PKC-delta assays, respectively. The detection reagents were added, and the plate was incubated in the dark for 2 hours. […] The ratio of acceptor and donor emission signals was calculated for each well. Percent inhibition values were calculated from the HTRF ratios at different doses and fitted to a 4-parameter logistic curve to determine IC50 values (see Table 2).

[4] = binned A to G, read-out: PKC-theta IL2 pIC50 (binned) (converted)
[5] = read-out: PKC-theta IL2 pIC50 (converted)
[6] = binned A to H, read-out: PKC-theta HTRF pIC50 (binned) (converted)
[7] = read-out: PKC-theta HTRF pIC50 (converted)

T1 sequence (Q05655 345-676): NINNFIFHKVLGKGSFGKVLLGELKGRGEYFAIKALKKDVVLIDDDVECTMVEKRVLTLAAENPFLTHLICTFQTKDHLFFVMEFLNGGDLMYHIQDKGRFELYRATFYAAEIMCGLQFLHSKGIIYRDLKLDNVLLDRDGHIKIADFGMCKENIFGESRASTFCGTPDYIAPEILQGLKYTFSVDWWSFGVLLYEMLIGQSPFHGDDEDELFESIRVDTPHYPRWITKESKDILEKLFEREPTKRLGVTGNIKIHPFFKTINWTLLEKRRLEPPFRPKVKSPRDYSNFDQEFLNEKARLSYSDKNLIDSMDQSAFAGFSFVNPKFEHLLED
T2 sequence (Q04759 362-706): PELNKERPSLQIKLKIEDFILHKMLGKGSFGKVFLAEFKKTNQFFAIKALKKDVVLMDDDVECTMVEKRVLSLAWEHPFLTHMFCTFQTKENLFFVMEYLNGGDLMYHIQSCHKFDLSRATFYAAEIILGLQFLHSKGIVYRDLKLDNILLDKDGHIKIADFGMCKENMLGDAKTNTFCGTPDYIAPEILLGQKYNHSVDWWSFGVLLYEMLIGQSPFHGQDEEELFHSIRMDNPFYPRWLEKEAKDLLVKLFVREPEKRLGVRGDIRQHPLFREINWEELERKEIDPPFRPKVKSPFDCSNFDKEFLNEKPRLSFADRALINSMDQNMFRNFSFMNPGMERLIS

| SMILES | IC50 [1, 4] | IC50 [1, 5] | PKC-theta/PKC-delta selectivity [2] | PKC-theta/PKC-delta selectivity (binned) [2] | IC50 [3, 6] | IC50 [3, 7] | PKC-theta IL2 pIC50 [1] | PKC-theta IL2 pIC50 (binned) ([1]; binned A to G) |
| --- | --- | --- | --- | --- | --- | --- | --- | --- |
| C[C@]1(O)C(=O)Nc2nccc(-c3cc(F)cc(N4CCNCC4)c3)c21 (single isomer, unassigned) [Example 62] | 0.1 to 0.316 µM | 0.126 µM | 5 | E (a ratio of between 5 and 10) | 0.00316 to 0.01 µM | 0.00631 µM | – | – |
| C[C@@]1(O)C(=O)Nc2nccc(-c3cc(F)cc(N4CCNCC4)c3)c21 (single isomer, unassigned) [Example 63] | > 1 µM | 10 µM | – | G (a ratio of 0 to 1) | 0.316 to 1 µM | 1 µM | – | – |
| C[C@H]1CN(c2cc(-c3ccnc4c3[C@@](C)(O)C(=O)N4)cc(C(F)(F)F)c2)CCN1 (single isomer, unassigned) [Example 81] | – | – | 9 | E (a ratio of between 5 and 10) | 0.01 to 0.0316 µM | 0.0251 µM | 6.7 | E (a measured pIC50 of between 6.5 and 7.0) |
| C[C@H]1CN(c2cc(-c3ccnc4c3[C@@](C)(O)C(=O)N4)cc(C(F)(F)F)c2)CCN1 (single isomer, unassigned) [Example 82] | – | – | 3 | F (a ratio of between 1 and 5) | 0.316 to 1 µM | 1 µM | 5.4 | G (a measured pIC50<6.0) |
| C[C@@H]1CN(c2cc(Cl)cc(-c3ccnc4c3[C@](C)(O)C(=O)N4)n2)CCN1 (single isomer, unassigned) [Example 89] | 0.0316 to 0.1 µM | 0.0631 µM | 17 | D (a ratio of between 10 and 20) | 0.001 to 0.00316 µM | 0.00316 µM | – | – |
| CC[C@H]1CN(c2cc(C(F)(F)F)cc(-c3ccnc4c3[C@](C)(O)C(=O)N4)n2)CCN1 (single isomer, unassigned) [Example 90] | 0.01 to 0.0316 µM | 0.0158 µM | 17 | D (a ratio of between 10 and 20) | 0.000316 to 0.001 µM | 0.000794 µM | – | – |
| C[C@@]1(O)C(=O)Nc2nccc(-c3cc(Cl)cc(N4CCNCC(F)C4)n3)c21 (single isomer, unassigned) [Example 91] | 0.1 to 0.316 µM | 0.2 µM | 6 | E (a ratio of between 5 and 10) | 0.00316 to 0.01 µM | 0.00631 µM | – | – |
| CC1(F)CNCCN(c2cc(Cl)cc(-c3ccnc4c3[C@](C)(O)C(=O)N4)n2)C1 (single isomer, unassigned) [Example 92] | 0.1 to 0.316 µM | 0.2 µM | 6 | E (a ratio of between 5 and 10) | 0.00316 to 0.01 µM | 0.00794 µM | – | – |
| C[C@H]1CNCCN1c1cc(C(F)(F)F)cc(-c2ccnc3c2[C@](C)(O)C(=O)N3)n1 (single isomer, unassigned) [Example 93] | 0.1 to 0.316 µM | 0.126 µM | 12 | D (a ratio of between 10 and 20) | 0.01 to 0.0316 µM | 0.0126 µM | – | – |
| C[C@@H]1CNCCN1c1cc(C(F)(F)F)cc(-c2ccnc3c2[C@](C)(O)C(=O)N3)n1 (single isomer, unassigned) [Example 94] | 0.01 to 0.0316 µM | 0.02 µM | 9 | E (a ratio of between 5 and 10) | 0.001 to 0.00316 µM | 0.002 µM | – | – |
| C[C@H]1CN(c2cc(C(F)(F)F)cc(-c3ccnc4c3[C@](C)(O)C(=O)N4)n2)CCN1 (single isomer, unassigned) [Example 95] | 0.0316 to 0.1 µM | 0.0316 µM | 15 | D (a ratio of between 10 and 20) | 0.001 to 0.00316 µM | 0.002 µM | – | – |
| C[C@@]1(O)C(=O)Nc2nccc(-c3cc(C(F)(F)F)cc(N4CCNC5CC54)n3)c21 (single isomer, unassigned) [Example 96] | 0.1 to 0.316 µM | 0.2 µM | 10 | E (a ratio of between 5 and 10) | 0.00316 to 0.01 µM | 0.00501 µM | – | – |
| C[C@@]1(O)C(=O)Nc2nccc(-c3cc(C(F)(F)F)cc(N4CC[C@H]5OCCN[C@@H]5C4)n3)c21 (single isomer, unassigned) [Example 97] | > 1 µM | 3.98 µM | 21 | C (a ratio of between 20 and 30) | 0.1 to 0.316 µM | 0.158 µM | – | – |
| C[C@H]1CNCCN1c1cc(Cl)cc(-c2ccnc3c2[C@](C)(O)C(=O)N3)n1 (single isomer, unassigned) [Example 104] | 0.1 to 0.316 µM | 0.126 µM | 11 | D (a ratio of between 10 and 20) | 0.00316 to 0.01 µM | 0.00501 µM | – | – |
| C[C@@H]1CNCCN1c1cc(Cl)cc(-c2ccnc3c2[C@](C)(O)C(=O)N3)n1 (single isomer, unassigned) [Example 105] | 0.01 to 0.0316 µM | 0.02 µM | 7 | E (a ratio of between 5 and 10) | 0.000316 to 0.001 µM | 0.001 µM | – | – |
| C[C@@H]1CN(c2cc(C(F)(F)F)cc(-c3ccnc4c3[C@](C)(O)C(=O)N4)n2)CCN1 (single isomer, unassigned) [Example 108] | 0.1 to 0.316 µM | 0.126 µM | 15 | D (a ratio of between 10 and 20) | 0.01 to 0.0316 µM | 0.0126 µM | – | – |
| C[C@@]1(O)C(=O)Nc2nccc(-c3cc(C(F)(F)F)cc(N4CCNC(CF)C4)n3)c21 (single isomer, unassigned) [Example 109] | 0.316 to 1 µM | 0.794 µM | 29 | C (a ratio of between 20 and 30) | 0.00316 to 0.01 µM | 0.00398 µM | – | – |
| C[C@H]1CN(c2cc(Cl)cc(-c3ccnc4c3[C@](C)(O)C(=O)N4)n2)CCN1 (single isomer, unassigned) [Example 110] | 0.01 to 0.0316 µM | 0.0251 µM | 16 | D (a ratio of between 10 and 20) | 0.000316 to 0.001 µM | 0.001 µM | – | – |
| C[C@@H]1CN(c2cc(C(F)(F)F)cc(-c3ccnc4c3[C@](C)(O)C(=O)N4)n2)[C@@H](C)CN1 (single isomer, unassigned) [Example 118] | 0.1 to 0.316 µM | 0.251 µM | 12 | D (a ratio of between 10 and 20) | 0.01 to 0.0316 µM | 0.0251 µM | – | – |
| C[C@@H]1CN(c2cc(C(F)(F)F)cc(-c3ccnc4c3[C@](C)(O)C(=O)N4)n2)[C@H](C)CN1 (single isomer, unassigned) [Example 119] | 0.1 to 0.316 µM | 0.2 µM | 12 | D (a ratio of between 10 and 20) | 0.00316 to 0.01 µM | 0.00398 µM | – | – |
| C[C@@]1(O)C(=O)Nc2nccc(-c3cc(Cl)cc(N4CCNC(CC(F)(F)F)C4)n3)c21 (single isomer, unassigned) [Example 122] | 0.1 to 0.316 µM | 0.251 µM | 16 | D (a ratio of between 10 and 20) | 0.00316 to 0.01 µM | 0.00398 µM | – | – |
| CC[C@@]1(C)C(=O)Nc2nccc(-c3cc(Cl)cc(N4CCN[C@@H](C)C4)n3)c21 (single isomer, unassigned) [Example 170] | 0.1 to 0.316 µM | 0.1 µM | – | – | 0.00316 to 0.01 µM | 0.00631 µM | – | – |
| O=c1[nH]c2nccc(-c3ccnc(N4CCNCC4)c3)c2[nH]1 [Example 13] | > 1 µM | 10 µM | – | – | 0.316 to 1 µM | 0.398 µM | – | – |
| C[C@H]1CN(c2cc(Cl)cc(-c3ccnc4c3C(C)(O)C(=O)N4)n2)CCN1 (stereo partly drawn) [Example 74] | – | – | 12 | D (a ratio of between 10 and 20) | – | – | – | – |
